Among the data in patent publication US20220125053A1, “Pesticidal Mixtures” (BASF SE, priority 2019, published 2022) are Observed efficacy values, retold here.

In assay [1] the test system is Qoi resistant isolate of Septoria tritici. In words: Microtest: activity against leaf blotch on wheat caused by Septoria tritici (SEPTTR), Qoi resistant isolate. It is filed as cell-based. The note with it: single compound, 7 days after inoculation. The source says: (§1) The active compounds were formulated separately as a stock solution having a concentration of 10000 ppm in dimethyl sulfoxide.
2. Activity against leaf blotch on wheat caused by Septoria tritici (SEPTTR) The stock solutions were mixed according to the ratio, pipetted onto a micro titer plate (MTP) and diluted with water to the stated concentrations. A spore suspension of a Qoi resistant isolate of Septoria tritici in an aqueous biomalt or yeast-bactopeptone-glycerine or DOB solution was then added. The plates were placed in a water vapor-saturated chamber at a temperature of 18° C. Using an absorption photometer, the MTPs were measured at 405 nm 7 days after the inoculation.
(§2) The measured parameters were compared to the growth of the active compound-free control variant (100%) and the fungus-free blank value to determine the relative growth in % of the pathogens in the respective active compounds.
(§3) These percentages were converted into efficacies.
(§4) An efficacy of 0 means that the growth level of the pathogens corresponds to that of the untreated control; an efficacy of 100 means that the pathogens were not growing.
(§5) The expected efficacies of active compound mixtures were determined using Colby's formula [R. S. Colby, “Calculating synergistic and antagonistic responses of herbicide combinations”, Weeds 15, 20-22 (1967)] and compared with the observed efficacies.

For a further assay, the system named is Microdochium nivale. The assay is described as follows: Microtest: activity against Microdochium nivale (MONGNI). It is filed as cell-based. The note with it: single compound, 7 days after inoculation. The method, then: as §1
1. Activity against Microdochium nivale (MONGNI) The stock solutions were mixed according to the ratio, pipetted onto a micro titer plate (MTP) and diluted with water to the stated concentrations. A spore suspension of Microdochium nivale in an aqueous biomalt or yeast-bactopeptone-glycerine or DOB solution was then added. The plates were placed in a water vapor-saturated chamber at a temperature of 18° C. Using an absorption photometer, the MTPs were measured at 405 nm 7 days after the inoculation.
as §2, §3, §4, §5

As to `CC(C)c1ccc(Cl)cc1CN(C(=O)c1c(C(F)F)nn(C)c1F)C1CC1` [Isoflucypram, N-(5-chloro-2-isopropylbenzyl)-N-cyclopropyl-3-(difluoromethyl)-5-fluoro-1-methyl-1H-pyrazole-4-carboxamide], the Observed efficacy in assay [1] (0.004 ppm) stood at 0; in assay [1] (0.016 ppm) it was 5; in assay [1] (0.063 ppm), 34; in the assay on Microdochium nivale (0.063 ppm), 40.
As for `Cc1cccc(-n2nnn(C)c2=O)c1COc1ccn(-c2ccc(Cl)cc2)n1` [Metyltetraprol, 1-[2-[[1-(4-chlorophenyl)pyrazol-3-yl]oxymethyl]-3-methyl-phenyl]-4-methyl-tetrazol-5-one], the results for the Observed efficacy (in assay [1] (0.016 ppm); in assay [1] (0.063 ppm); in the assay with Microdochium nivale (0.016 ppm)) were 0, 1 and 32, respectively.
